Test [1] deals with microglia (Iba-1) positive cells. Description: Immunofluorescence staining of Iba-1 in Str and SN brain regions. The class given is in vivo, Sprague-Dawley rats. Particulars: Mean ± SEM, N=15; for Iba-1 staining SN positive cells num.: Model 397.8 ± 21.2; for Iba-1 staining Str positive cells num.: Model 668.3 ± 13.0. As to the method:
After the rat was anesthetized, the abdominal cavity and thorax were cut open with straight scissors to expose the heart. The blood was first flushed out with normal saline perfusion, and then paraformaldehyde was used for initial perfusion fixation. The head was cut off, and the brain case was carefully opened with tweezers, and the brain tissue was removed and placed in paraformaldehyde solution and fix for 24 h; on the second day, took out the brain tissue and placed in 20% sucrose solution for 24 h; on the third day, took out the brain tissue and placed in 30% sucrose solution for 24 h; on the fourth day, took out the brain tissue and placed in 35% sucrose solution for 24 h (increase the time or concentration appropriately according to the condition of sugar deposition in the brain tissues); took out the brain tissue, embedded it in OCT embedding agent, and cut brain slices at the thickness of […] with a freezing microtome.
Immunohistochemical staining of TH and Iba-1 was performed on the sections. Sections were rewarmed for 30 min, closed at room temperature for 1 h with 50% serum+0.3% TritonX-100 in 50 μL per slice, shook off the slices, added primary antibody (diluted in PBS), overnight at 4° C.; rewarmed for 30 min; washed off primary antibody (PBS), 5 min×3 times; added secondary antibody (diluted in PBS) by backlighting, room temperature for 2 h; washed off secondary antibody (PBS), 5minx 3 times; added (4′,6-diamidino-2-phenylindole) (DAPI), and stayed at room temperature for 10 min; washed off DAPI, 5 min×3 times; added 70% glycerol to seal the slices to avoid air bubbles. Observed and took pictures under a microscope. Selected basically the same target brain area for each slice. Afterwards, ImageJ was used to count the signal number or area of the entire slice.
Experimental Methods: Seventy 180-220g SD male rats were selected and fed for one week for accumulation, and the PD model was established by stereotactic unilateral injection of 6-OHDA in the Substantia Nigra (SN) and Striatum (Str) regions and were randomly divided into five groups according to their body weights including Madopar group (Madopar, 50 mg/kg), BTUDC-L group (BTUDC, 100 mg/kg), BTUDC-M group (BTUDC, 500 mg/kg), and BTUDC-H group (BTUDC, 1000 mg/kg), with 10 animals in each group. Another 10 SD male rats were taken for sham operation (only 4 μL of 0.9% NS containing 0.02% ascorbic acid was given to the SN and Str brain regions during modeling) as the Sham group. The drug was administered by gavage once daily continuously for 21 days starting on the second day of modeling (first day of dosing, D1). General observation was made during the dosing period. At the end of the administration, the test articles were evaluated for tolerance in this model and in behavioral apomorphine—asymmetric rotation test, beam test, rotarod test and grip strength test, immunofluorescence staining (TH, Ibal), and cerebrospinal fluid inflammatory factor assays to evaluate the pharmacodynamic effects of the test articles. Inflammatory factors tested included interleukin 6 (1L-6), inflammatory factor […], Tumor Necrosis Factor alpha (TNF-α), inflammatory assays were done in a total of 4 groups included Sham, Model, Madopar and BTUDC-H groups.
Dosing volume: 10 mL/kg • 1. General observation: During the period of drug administration, body weight, food intake test and cage side observation were conducted every 3 days. • 2. Behavioral test: After 21 days of administration, behavioral test was carried out on the following day. • 3. […]

In a further test the test system is IL-6. The test is described as follows: Elisa test of cerebrospinal fluid, IL-6. It is filed as in vivo, Sprague-Dawley rats. Particulars: rat cerebrospinal fluid; BTUDC-H 1000 mg/kg p.o. Qd 21 days; Mean ± SEM, n=10; Model 159.058 ± 6.349; p<0.05 vs Model. From the text: The cerebrospinal fluid was directly extracted by inserting a needle through the foramen magnum, and the supernatant was collected after centrifugation for ELISA testing. The kit brand was Shanghai Enzyme Link. The product codes of IL-6, IL-1β, and TNF-α were m1064292, m1037361, and m1002859, respectively. Processed the sample according to the instructions of the ELISA detection kit, adjusted the blank well to zero, measured the absorbance (OD value) of each well sequentially at a wavelength of 450 nm, and calculated the sample concentration based on the standard curve and OD value. […]
Dosing volume: 10 mL/kg • 1. […] Histochemical test: After the behavioral test, the cerebrospinal fluid from each animal (N=10) was collected, centrifuged to collect the supernatant, and stored at −80° C. for Elisa test (IL-6, IL-1β, TNF-α), then the animals in each group (N=5) were randomly selected to take the modeling side of the striatum for the detection of neurotransmitters, and the rest of them (N=5) were subjected to cardiac perfusion, which was performed by the process of perfusion, fixation, sedimentation and slicing for immunofluorescence staining and photographed, and the number or area of signals were counted by ImageJ software. • 4. […]

Where [2] appears, read: BTUDC-H 1000 mg/kg p.o. Qd 21 days, p<0.001 vs Model.

We go through one molecule from US20260217699A1, “BERBERINE TAUROURSODEOXYCHOLATE COMPOSITIONS AND METHODS THEREOF” (SHENZHEN HIGHTIDE BIOPHARMACEUTICAL LTD., priority 2023, published 2026).

Regarding `COc1ccc2cc3[n+](cc2c1OC)CCc1cc2c(cc1-3)OCO2.C[C@H](CCC(=O)NCCS(=O)(=O)[O-])[C@H]1CC[C@H]2[C@@H]3[C@@H](O)C[C@@H]4C[C@H](O)CC[C@]4(C)[C@H]3CC[C@]12C` [BTUDC, Berberine tauroursodeoxycholate], the “Iba-1 staining SN positive cells num.” value was determined as 270.0 ± 21.5 in test [1] (setting [2]); 413.7 ± 42.8 in test [1] (BTUDC-L 100 mg/kg p.o. Qd 21 days, no significance mark); 393.1 ± 20.1 in test [1] (BTUDC-M 500 mg/kg p.o. Qd 21 days, no significance mark). For the same molecule, the “Iba-1 staining Str positive cells num.” value is listed as 556.5 ± 16.2 in test [1] (setting [2]); 601.7 ± 14.2 in test [1] (BTUDC-L 100 mg/kg p.o. Qd 21 days, p<0.01 vs Model); 602.7 ± 9.1 in test [1] (BTUDC-M 500 mg/kg p.o. Qd 21 days, p<0.01 vs Model). In addition, the “IL-6 Conc.” value with IL-6 stood at 147.095 ± 1.871 pg/mL.
